Results reported in article PMC11299271 (BMC Pharmacology & Toxicology, 2024).
“And” between values parts separate entries of the source, which are not always exact repeats. Identical values can stand only once. Like-named read-outs stand apart in the source and are kept apart here. Each block holds one compound with its values, some of them ahead of it.

Legend:
[1] = Pharmacokinetic measurements in T2DM rats (plasma concentrations by UPLC-MS/MS, two-compartment PK model); type: in vivo; details: for C5ohsax, observed plasma concentration: individual rats
Description: . Plasma was obtained by centrifugation at 3000 r/min and stored at −80 °C until analysis.
Plasma concentrations of analytes were determined using the UPLC-MS/MS method above. […].

[2] = Plasma glucose concentration in T2DM rats (glucose oxidase method); type: in vivo
Description: Glucose concentration in the plasma was determined by Glucose test kit (glucose oxidase method, Rongsheng biological Pharmaceutical Co.,Ltd, Shanghai, China). All the procedures were conducted according to manufacturers’ instructions. All test specimens (plasma samples, blank and calibration samples) were done in flat bottom 96 well microplates; 2.5 µL serum or calibration, 250 µL solution were pipetted into each well of the microplate, and the blank control contain water. The results were tested at 37 °C for 10 min and an absorbance value of 505 nm in a continuous monitoring micro plate reader. Glucose concentration (mmol/L) = (sample tube absorbent/calibration tube absorbent) × calibration fluid concentration (5.55 mmol/L). All experiments were repeated two duplicates.

[3] = Plasma insulin concentration in T2DM rats (Rat INS ELISA Kit); type: in vivo
Description: Insulin concentration in the plasma was determined by Rat INS ELISA Kit (Zeye Biotechnology Co., Ltd., Shanghai, China). All the procedures were conducted according to manufacturers’ instructions. Test specimens (plasma samples, blank and calibration samples) were added to an antibody-coated 96-well plate followed by addition of biological agent and enzyme conjugate solution, these mixtures incubated 30 min at 37 °C. The plate was then washed after incubation and a mixture of chromogenic reagent A and B was added. Optical density values at 450 nm were measured after terminating the reaction, and insulin concentrations were calculated according to the standard curve within a range of 0–20 mU/L (0, 1.25, 2.5, 5, 10, 20 mU/L).

[4] = Stability of analytes in QC rat plasma (UPLC-MS/MS); type: physicochemical; details: for Stability, autosampler at 4 °C for up to 16 h (% of nominal): extracted plasma samples; for Stability, autosampler at 4 °C for up to 16 h (% of nominal) / Stability, 4 °C for 12 h (% of nominal) / Stability, freeze-thaw three cycles (% of nominal) / Stability, room temperature for 4 h (% of nominal) / Stability, −80 °C for 7 days (% of nominal): n = 3; for Stability, 4 °C for 12 h (% of nominal) / Stability, freeze-thaw three cycles (% of nominal) / Stability, room temperature for 4 h (% of nominal) / Stability, −80 °C for 7 days (% of nominal): rat plasma; for stability in plasma under storage conditions: room temperature (25 °C) 4 h, 4 °C 12 h, −80 °C 7 days, three freeze-thaw cycles, autosampler 4 °C up to 16 h
Description: The stability of analytes in QC plasma was evaluated by analyzing replicates (n = 3) of LQC, MQC, HQC samples placed on storage for 4 h at room temperature (25 °C), for 12 h at 4 °C, for 7 days at −80 °C, and after three freeze-thaw cycles from −80 °C to room temperature. […]

[5] = cited from earlier work
[6] = T2DM rats, i.v. 0.5 mg/kg 5-OH SAX, Subject1, Subject2, Subject3, 0.5 mg/kg
[7] = T2DM rats, i.v. 0.5 mg/kg 5-OH SAX, two-compartment model, mean (n = 3)
[8] = high QC: spiked 2000 ng/mL SAX, 400 ng/mL 5-OH SAX
[9] = low QC: spiked 15 ng/mL SAX, 3 ng/mL 5-OH SAX
[10] = T2DM rats, i.g. 10 mg/kg SAX, two-compartment model with first order absorption, mean (n = 3)
[11] = i.g. 10 mg/kg SAX vs 0.5% CMC-Na

Structure (SMILES): N#C[C@@H]1C[C@@H]2C[C@@H]2N1C(=O)[C@@H](N)C12CC3CC(O)(CC(O)(C3)C1)C2 [5-OH SAX, 5-hydroxy Saxagliptin]
AUC, individual rats [1, 6]: 691.49 ng·h/mL and 452.17 ng·h/mL and 611.48 ng·h/mL
Cl2, individual rats [1, 6]: 8.2463 mL/min/kg and 8.554 mL/min/kg and 6.7797 mL/min/kg
Cl, individual rats [1, 6]: 12.051 mL/min/kg and 18.4298 mL/min/kg and 13.628 mL/min/kg
K12, individual rats [1, 6]: 4.85 h⁻¹ and 2.93 h⁻¹ and 2.76 h⁻¹
K21, individual rats [1, 6]: 3.41 h⁻¹ and 3.53 h⁻¹ and 3.31 h⁻¹
V2, individual rats [1, 6]: 0.14522 L/kg and 0.14545 L/kg and 0.12277 L/kg
V, individual rats [1, 6]: 0.10199 L/kg and 0.17509 L/kg and 0.14739 L/kg
t1/2a, individual rats [1, 6]: 3 min and 3.6 min and 4.2 min
t1/2β, individual rats [1, 6]: 23.4 min and 19.8 min and 22.2 min
C5ohsax, observed plasma concentration ([1]; T2DM rats, i.v. 0.5 mg/kg 5-OH SAX, nominal time 0.08 h, 0.5 mg/kg): 1610.00 ng/mL and 1240.00 ng/mL
C5ohsax, observed plasma concentration ([1]; T2DM rats, i.v. 0.5 mg/kg 5-OH SAX, nominal time 0.17 h, 0.5 mg/kg): 972.00 ng/mL and 684.00 ng/mL and 900.00 ng/mL
C5ohsax, observed plasma concentration ([1]; T2DM rats, i.v. 0.5 mg/kg 5-OH SAX, nominal time 0.25 h, 0.5 mg/kg): 595.00 ng/mL and 387.00 ng/mL and 550.00 ng/mL
C5ohsax, observed plasma concentration ([1]; T2DM rats, i.v. 0.5 mg/kg 5-OH SAX, nominal time 0.50 h, 0.5 mg/kg): 295.00 ng/mL and 192.00 ng/mL and 235.00 ng/mL
C5ohsax, observed plasma concentration ([1]; T2DM rats, i.v. 0.5 mg/kg 5-OH SAX, nominal time 0.75 h, 0.5 mg/kg): 150.00 ng/mL and 91.70 ng/mL and 149.00 ng/mL
C5ohsax, observed plasma concentration ([1]; T2DM rats, i.v. 0.5 mg/kg 5-OH SAX, nominal time 2.00 h, 0.5 mg/kg): 20.60 ng/mL and 8.16 ng/mL and 11.60 ng/mL
AUC [1, 7]: 585.04 ng·h/mL
CL2 (clearance rate of peripheral compartment) [1, 7]: 7.86 mL/min/kg
CL (clearance rate of central compartment) [1, 7]: 14.703 mL/min/kg
Cmax [1, 7]: 3716.88 ng/mL
K12 [1, 7]: 3.51 h⁻¹
K21 [1, 7]: 3.42 h⁻¹
V2 (apparent distribution volume of peripheral compartment) [1, 7]: 0.13781 L/kg
V (apparent distribution volume of central compartment) [1, 7]: 0.14149 L/kg
t1/2a (distribution phase half-life) [1, 7]: 3.6 min
t1/2β (elimination half-life) [1, 7]: 21.6 min
blood glucose compared to the control group ([2]; tail vein 0.5 mg/kg 5-OH SAX vs saline, 0.08, 0.17, 0.25 and 0.5 h (P<0.05)): significant differences
insulin compared to the control group ([3]; tail vein 0.5 mg/kg 5-OH SAX vs saline, within the sampling range): no significant differences
Stability, autosampler at 4 °C for up to 16 h (% of nominal) [4, 8]: 101.22 ± 2.47%
Stability, autosampler at 4 °C for up to 16 h (% of nominal) [4, 9]: 100.44 ± 3.10%
Stability, 4 °C for 12 h (% of nominal) [4, 8]: 99.32 ± 2.66%
Stability, freeze-thaw three cycles (% of nominal) [4, 8]: 95.79 ± 2.16%
Stability, room temperature for 4 h (% of nominal) [4, 8]: 98.51 ± 2.19%
Stability, −80 °C for 7 days (% of nominal) [4, 8]: 97.49 ± 2.52%
Stability, 4 °C for 12 h (% of nominal) [4, 9]: 100.67 ± 2.52%
Stability, freeze-thaw three cycles (% of nominal) [4, 9]: 94.89 ± 2.91%
Stability, room temperature for 4 h (% of nominal) [4, 9]: 99.78 ± 2.22%
Stability, −80 °C for 7 days (% of nominal) [4, 9]: 95.11 ± 4.55%
stability in plasma under storage conditions [4]: remained stable
systemic exposure in plasma relative to the parent drug SAX ([5]; after SAX): about 3 times

CL2 (clearance rate of peripheral compartment) [1, 10]: 284.8403 mL/min/kg
CL (clearance rate of central compartment) [1, 10]: 54.0967 mL/min/kg
K12 [1, 10]: 6.62 h⁻¹
K21 [1, 10]: 1.07 h⁻¹
V2 (apparent distribution volume of peripheral compartment) [1, 10]: 18.3933 L/kg
V (apparent distribution volume of central compartment) [1, 10]: 2.30724 L/kg
Tmax ([1]; rat, plasma, po, 10 mg/kg): 6.6 min
half-life ([1]; rat, plasma, po, 10 mg/kg, T2DM rats, i.g. 10 mg/kg SAX, two-compartment model with first order absorption, mean (n = 3), read-out: t1/2Ka (absorption phase half-life) (converted)): 4.2 min
half-life ([1]; rat, plasma, po, 10 mg/kg, T2DM rats, i.g. 10 mg/kg SAX, two-compartment model with first order absorption, mean (n = 3), read-out: t1/2a (distribution phase half-life) (converted)): 4.8 min
half-life ([1]; rat, plasma, po, 10 mg/kg, T2DM rats, i.g. 10 mg/kg SAX, two-compartment model with first order absorption, mean (n = 3), read-out: t1/2β (elimination half-life) (converted)): 368 min
AUC ([1]; rat, plasma, po, 10 mg/kg, read-out: AUC): 3280 ng·h/mL
Cmax ([1]; rat, plasma, po, 10 mg/kg, read-out: Cmax): 2200 ng/mL
Stability, autosampler at 4 °C for up to 16 h (% of nominal) [4, 8]: 98.05 ± 2.04%
Stability, autosampler at 4 °C for up to 16 h (% of nominal) [4, 9]: 99.02 ± 2.00%
Stability, 4 °C for 12 h (% of nominal) [4, 8]: 99.09 ± 2.02%
Stability, freeze-thaw three cycles (% of nominal) [4, 8]: 95.84 ± 1.52%
Stability, room temperature for 4 h (% of nominal) [4, 8]: 99.59 ± 3.47%
Stability, −80 °C for 7 days (% of nominal) [4, 8]: 98.07 ± 2.07%
Stability, 4 °C for 12 h (% of nominal) [4, 9]: 100.60 ± 2.29%
Stability, freeze-thaw three cycles (% of nominal) [4, 9]: 96.71 ± 1.93%
Stability, room temperature for 4 h (% of nominal) [4, 9]: 99.02 ± 2.02%
Stability, −80 °C for 7 days (% of nominal) [4, 9]: 98.56 ± 2.14%
stability in plasma under storage conditions [4]: remained stable
Structure (SMILES): N#C[C@@H]1C[C@@H]2C[C@@H]2N1C(=O)[C@@H](N)C12CC3CC(CC(O)(C3)C1)C2 [SAX, Saxagliptin]
blood glucose compared to the control group [2, 11]: no significant differences
insulin compared to the control group [3, 11]: no significant differences
share of the dose metabolized in the liver by CYP3A4/5 to 5-OH SAX [5]: about 50%
bioavailability ([5]; oral 5 mg SAX): 75%
